Laboratory results published in patent US8431556B2, “C-21-keto lupane derivatives preparation and use thereof” (Vertex Pharmaceuticals Incorporated, priority 2008, dated 2013).
Like-named read-outs stand apart in the source and are kept apart here.

Test system: HIV-1 (HIVIIIB)
Experiment: HIV-1 replication in MT2 cell line with and without 30% human serum (viral RT activity in supernatant)
Type: cell-based
Details: Human immunodeficiency virus 1, MT2, MT-2 cells, average IC50 if tested more than once
Protocol: HIV-1 Replication in MT2 cell line with and without 30% human serum: The cells are infected at a Multiciplicity of Infection (MOI) of 0.5 for 3 h and then washed twice with complete media to remove residual virus. Cells are then resuspended at 0.5×10^6/ml in complete medium (RPMI, 10% FBS, 1% sodium pyruvate), and seeded into 96-well plates (6.25×10^4/well). The cells are cultured in the presence or absence of various concentrations of test compounds in serial dilutions for 3 days at 37° C. The test compounds are serially diluted in complete medium supplemented or not with 30% human serum. After 3 days, 100 μL of cultured medium with cells are replaced with 120 μL of freshly diluted test compounds in complete medium containing or not 30% Human serum. The level of HIV-1 replication is determined at days 5 after infection by the presence of viral RT activity in harvested supernatant fluid. The IC50 and IC90 values for the virus replication are determined by using GRAPHPAD PRISM software.
The IC50 of the compounds tested in accordance with the HIV replication activity assay MT-2 (HIVIIIB) are represented in Table 4 (without HS) and Table 5 (with 30% HS)

[1] = with 30% human serum, read-out: MT-2 (HIVIIIB) with 30% HS IC50 range

For CC(C)C1=C2[C@H]3CC[C@@H]4[C@@]5(C)CC[C@H](OC(=O)CC(C)(C)C(=O)O)C(C)(C)[C@@H]5CC[C@@]4(C)[C@]3(C)CC[C@@]2(C(=O)N2CCC(F)(F)CC2)CC1=O [9-94, 3β-O-(3′,3′-Dimethylsuccinyl)-21-oxolup-18-en-28-oic acid N-4,4-difluoro-piperidine acetamide], the IC50 [1] was less than 199 nM.
CC(C)C1=C2[C@H]3CC[C@@H]4[C@@]5(C)CC[C@H](OC(=O)CC(C)(C)C(=O)O)C(C)(C)[C@@H]5CC[C@@]4(C)[C@]3(C)CC[C@@]2(C(=O)Nc2ccccc2)CC1=O [9-10, 3β-O-(3′,3′-Dimethylsuccinyl)-21-oxolup-18-en-28-oic acid N-benzamide] showed an IC50 [1] of less than 199 nM.
With CC(C)NC(=O)N1CCN(C(=O)[C@@]23CC[C@]4(C)[C@H](CC[C@@H]5[C@@]6(C)CC[C@H](OC(=O)CC(C)(C)C(=O)O)C(C)(C)[C@@H]6CC[C@]54C)C2=C(C(C)C)C(=O)C3)CC1 [9-39, 3β-O-(3′,3′-Dimethylsuccinyl)-21-oxolup-18-en-28-oic acid N-(4-N′-isopropylureido-1-piperazine)-acetamide] the IC50 [1] was less than 199 nM.
Compound CC(C)C1=C2[C@H]3CC[C@@H]4[C@@]5(C)CC[C@H](OC(=O)CC(C)(C)C(=O)O)C(C)(C)[C@@H]5CC[C@@]4(C)[C@]3(C)CC[C@@]2(C(=O)Nc2ccnn2C)CC1=O [9-54, 3β-O-(3′,3′-Dimethylsuccinyl)-21-oxolup-18-en-28-oic acid N-5-amino-1-methyl-1H-pyrazole acetamide] has an IC50 [1] of less than 199 nM.
For Cc1ncncc1NC(=O)[C@@]12CC[C@]3(C)[C@H](CC[C@@H]4[C@@]5(C)CC[C@H](OC(=O)CC(C)(C)C(=O)O)C(C)(C)[C@@H]5CC[C@]43C)C1=C(C(C)C)C(=O)C2 [9-55, 3β-O-(3′,3′-Dimethylsuccinyl)-21-oxolup-18-en-28-oic acid N-4-methyl-pyrimidin-5-yl-acetamide], the IC50 [1] was less than 199 nM.
CC(C)C1=C2[C@H]3CC[C@@H]4[C@@]5(C)CC[C@H](OC(=O)CC(C)(C)C(=O)O)C(C)(C)[C@@H]5CC[C@@]4(C)[C@]3(C)CC[C@@]2(C(=O)Nc2ncccn2)CC1=O [9-38, 3β-O-(3′,3′-Dimethylsuccinyl)-21-oxolup-18-en-28-oic acid N-pyrimidin-2-yl-acetamide] was tested, and the IC50 [1] was less than 199 nM.
With CC(C)C1=C2C3CCC4[C@@]5(C)CC[C@H](OC(=O)CC(C)(C)C(=O)O)C(C)(C)C5CC[C@@]4(C)[C@]3(C)CC[C@@]2(C(=O)NC[C@@H]2CCCN2C(=O)OC(C)(C)C)CC1=O (stereo partly drawn) [9-80, 3β-O-(3′,3′-Dimethylsuccinyl)-21-oxolup-18-en-28-oic acid N-(S)-2-acetylaminomethyl-pyrrolidine-1-carboxylic acid tert-butyl ester] the IC50 [1] was less than 199 nM.
In the case of CC(C)C1=C2C3CCC4[C@@]5(C)CC[C@H](OC(=O)CC(C)(C)C(=O)O)C(C)(C)C5CC[C@@]4(C)[C@]3(C)CC[C@@]2(C(=O)Nc2ccccc2C(C)C)CC1=O (stereo partly drawn) [9-87, 3β-O-(3′,3′-Dimethylsuccinyl)-21-oxolup-18-en-28-oic acid N-2-isopropyl-phen-1-yl acetamide], the IC50 [1] is reported as 200 to 999 nM.
CC(=O)N1CC2CCC(C1)N2C(=O)[C@@]12CC[C@]3(C)C(CCC4[C@@]5(C)CC[C@H](OC(=O)CC(C)(C)C(=O)O)C(C)(C)C5CC[C@]43C)C1=C(C(C)C)C(=O)C2 (stereo partly drawn) [9-95, 3β-O-(3′,3′-Dimethylsuccinyl)-21-oxolup-18-en-28-oic acid N-8-acetylamino-3,8-diaza-bicyclo[3.2.1]octane-3-acetamide] gave an IC50 [1] of less than 199 nM.
With CC(C)C1=C2[C@H]3CC[C@@H]4[C@@]5(C)CC[C@H](OC(=O)CC(C)(C)C(=O)O)C(C)(C)[C@@H]5CC[C@@]4(C)[C@]3(C)CC[C@@]2(C(=O)NCC2CCCCC2)CC1=O [9-5, 3β-O-(3′,3′-Dimethylsuccinyl)-21-oxolup-18-en-28-oic acid N-cyclohexyl methylamide] the IC50 (without HS, read-out: MT-2 (HIVIIIB) IC50 range) was less than 199 nM.
